# Assays:
# wild type CHO cells = assay: Intracellular Ca2+ measurements (FLIPR) on wild type CHO cells; type: cell-based
# [1] = molecular target: T1, adenine binding rat receptor (Rattus norvegicus, UniProt Q7TN49); assay: [35S]GTPγS binding on CHO membranes permanently transfected; type: biochemical; details: for % stimulation: above basal
# T1 construct: expressed in transfected cells; host or cells: CHO cells, transient, lipofectamine PLUS
# T1 sequence (Q7TN49 1-304): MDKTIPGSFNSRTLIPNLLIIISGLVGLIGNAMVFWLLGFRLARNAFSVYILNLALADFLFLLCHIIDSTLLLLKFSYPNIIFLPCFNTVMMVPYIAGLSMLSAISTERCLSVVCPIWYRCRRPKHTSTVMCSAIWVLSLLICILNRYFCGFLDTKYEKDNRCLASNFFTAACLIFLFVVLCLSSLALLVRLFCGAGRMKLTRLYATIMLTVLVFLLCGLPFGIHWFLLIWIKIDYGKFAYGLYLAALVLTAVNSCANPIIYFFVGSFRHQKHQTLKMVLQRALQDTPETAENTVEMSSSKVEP
# Description: The lipofectamine PLUS method was also used for permanent transfection of CHO cells with slight modifications. One day after the transfection, the medium was replaced with selection medium which was replaced every 2 to 3 days. The cells were grown till colonies appeared (between day 8 and 10) and split to a 175 cm^2 culture flask for further culture and experiments. Monoclonal cell lines were prepared by limited dilution seeding in 96 well plates.
# a) Methods—Determination of [^35S ]GTPγS binding to the G-proteins was carried out according to a modified procedure of Lazareno (Methods Mol. Biol., 83:107-116, 1997). These experiments were performed for a first functional evaluation of the receptor on the level of a membrane preparation.
# The assay mixture contained 10 and 35 μg of membrane protein for the transfected and wild type CHO cells, respectively.
# For testing agonistic activity, 175 μl of diluted membranes was pre-incubated in the buffer described above together with 25 μl of buffer and 25 μl of varying concentrations of the compound in a total volume of 225 μl. After a 20 minute pre-incubation period at 30° C., 25 μl of [^35S]GTPγS was added to a final concentration of 0.25 nM and the assay mixtures were further incubated for 20 minutes at 30° C. Bound and free [^35S]GTPγS were separated by rapid filtration over an UniFilter™-96, GF/B™ under reduced pressure using Filtermate 196 filtration (Packard Company (Netherlands). The amount of bound radioactivity on the filter unit was determined after drying of the filters and scintillant addition (Microscint-O; Packard Company) by liquid scintillation counting.
# Basal [^35S]GTPγS binding was measured in absence of compounds. Stimulation by agonist was calculated as the percentage increase above basal levels. The sigmoid agonist concentration-response curves were analyzed by non-linear regression using the GraphPad Prism program. The different concentration points were run in duplicates and the reported data were retrieved from independent experiments.
# The first functional characterization of the monoclonal cell lines was performed in [^35S]GTPγS binding experiments. The maximum stimulation of [^35S] GTPγS binding by adenine for each of the 4 selected clones was much higher ([…]) than the that found in the transient transfections confirming the expected better coupling in permanent cell lines (see table 5).
# rat adenine binding GPCR = molecular target: T2, rat adenine binding GPCR (Rattus norvegicus, UniProt Q7TN49); assay: Intracellular Ca2+ measurements (FLIPR) on permanently transfected CHO cells, clone 28; type: cell-based; parameters: The full length reading frame was inserted into the mammalian expression vector pcDNA3; expressed in transfected cells
# T2 sequence (Q7TN49 1-304): T1 sequence (Q7TN49 1-304)
# Description: Finally, measurements of intracellular Ca^2+ were performed on the best functionally coupled CHO cell line, clone 28. The effect of Na-butyrate pre-treatment was investigated using a dose response curve of adenine.
# a) Methods—Two days before the experiment the cells were seeded out in a 96 well plate at a density required for approximately 90% cell confluence at the day of the experiment. Compounds were diluted in calcium buffer (5 mM HEPES/NaOH, pH 7.4, 140 mM NaCl, 1 mM MgCl2, 5 mM KCl, 10 mM glucose, 1.25 mM CaCl2, 2.5 mM probenecid, pH 7.4), twice their final concentrations. For basal values, calcium buffer was applied and for the maximum response, 10 μM ionomycin was used. The growth medium was removed and the cells were loaded in serum-free growth medium supplemented with probenecid (5 mM), the indicator Fluo-3 (2 μM), 20 mM HEPES/NaOH, pH, 7.4 and 0.1% BSA in the incubator at 37° C. After 60 minutes incubation, the cells were washed 3 times with the calcium buffer. 100 μl of the diluted compounds was transferred to the wells and changes in intracellular calcium levels were measured with the FLIPR® (Fluorometric Imaging Plate Reader, Molecular Devices). Each data point was run in duplicate and the peak of the Ca ^2+-transient was considered as the relevant signal. The sigmoid concentration response curves were analyzed using the GraphPad Prism program.
# [2] = molecular target: T1, adenine binding rat receptor; assay: cAMP measurements on CHO cells permanently transfected (clone 28); type: cell-based
# Description: For permanently transfected CHO cells, cAMP measurements were performed using the indirect RIA kit from NEN (Belgium).
# a) Methods: Two days before the experiment the cells were seeded out in a 96 well plate at a density required for approximately 90% confluence at the day of the experiment. After removal of the growth medium, the cells were washed twice with a controlled salt solution (CSS) containing 25 mM Tris-HCl, pH 7.4, 120 mM NaCl, 5.4 mM KCl, 0.8 mM MgCl2, 1.8 mM CaCl2, 15 mM glucose and 15 mg/l phenol red, with an addition of a phosphodiesterase inhibitor IBMX (3-isobutyl-1-methylxanthine) in a concentration of 1 mM and […]. Basal cAMP levels were determined in CSS containing these additives and maximally stimulated cAMP levels were determined in the presence of 50 μM forskolin. For testing agonistic activity, the compounds were incubated with the cells for 20 minutes at 37° C. The reaction was stopped by addition of ice cold HClO4 (1N) and stored at −20° C. After thawing the mixtures were neutralized with an equivalent amount of phosphate buffered KOH, left at 4° C. during 30 minutes to allow the salts to precipitate and centrifuged at 2,000 RPM for 5 minutes at 4° C.
# For the quantitative determination of the cAMP levels, a 96-well Flashplate radioimmunoassay kit from NEN was used, according to the protocol of the supplier. The sigmoid concentration response curves (duplicate points) were analyzed using the GraphPad Prism program.
# [3] = clone 28, Na-butyrate treated cells
# [4] = clone 28, non-Na-butyrate treated cells
structure (smiles),measurement,setting,value
"Nc1ncnc2nc[nH]c12 [Adenine, adenine]",intracellular Ca2+ response,wild type CHO cells,did not show any response
same,EC50,"[1]; 4 selected clones, read-out: mean EC50",62 nM
same,EC50,"[1]; Clone 26 (MP1), read-out: pEC50 (converted)",64.6 nM
same,EC50,"[1]; Clone 28 (MP9), read-out: pEC50 (converted)",49 nM
same,EC50,"[1]; Clone 29 (MP9), read-out: pEC50 (converted)",79.4 nM
same,EC50,"[1]; Clone 30 (MP9), read-out: pEC50 (converted)",57.5 nM
same,% stimulation,[1]; Clone 26 (MP1),632%
same,% stimulation,[1]; Clone 28 (MP9),657%
same,% stimulation,[1]; Clone 29 (MP9),527%
same,% stimulation,[1]; Clone 30 (MP9),534%
same,EC50,rat adenine binding GPCR; [3],14.8 nM
same,increase in RFU,rat adenine binding GPCR; [3],3 fold
same,EC50,rat adenine binding GPCR; [4],72.4 nM
same,increase of the basal relative fluorescence units (RFU),rat adenine binding GPCR; [4],1.25 fold
same,EC50,"[2]; after Na-butyrate induction, read-out: EC50",3 nM
same,EC50,"[2]; transfected cells (clone 28), 0.5% hiFCS, Na-butyrate induction, read-out: pEC50 (converted)",2.88 nM
same,EC50,"[2]; transfected cells (clone 28), 10% hiFCS, Na-butyrate induction, read-out: pEC50 (converted)",2.95 nM

# — patent US20030157516A1, “G protein coupled receptor” (priority 2000, published 2003)
